Assay results published in US11155523B2, “Biphenyl compound as CCR2/CCR5 receptor antagonist” (Medshine Discovery Inc., priority 2016, dated 2021).

Assays:
[1] = biological target: T1, CCR2 (Homo sapiens, UniProt P41597); experiment: CCR2 in vitro test: intracellular calcium signal detected by FLIPR; type: cell-based; settings: HEK293 cells expressing CCR2, agonist MCP-1 at EC80, calcium signal
T1 construct: expressed in transfected cells; host or cells: HEK293, clone C7, passage P6
In short: (§1)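 Receptor-expressing cells loaded with Fluo-4 Direct and probenecid (2.5 mM final), then preincubated with compounds (11-point 1:3 series) before challenge at EC80 of agonist (MCP-1 for CCR2, RANTES for CCR5). FLIPR calcium max−min signal; IC50 fitted.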

[2] = system: human liver microsomal cytochrome P450 isoenzymes; experiment: Inhibition of human liver microsomal cytochrome P450 isoenzymes, overall conclusion; type: in vitro ADME; settings: human liver microsomes
Method: (§2) Experimental Example 4 Inhibition Effect on the Activity of Human Liver Microsomal Cytochrome P450 Isoezymes (CYP1A2, CYP2C9, CYP2C19, CYP2D6 and CYP3A4)
(§3) A total of 5 specific probe substrates for CYP's five isozymes, Phenacetin (CYP1A2), Diclofenac (CYP2C9), […] (S)-Mephenytoin, CYP2C19), Dextromethorphan (CYP2D6) and Midazolam (CYP3A4) were incubated with human liver microsomes and test compounds, respectively, and reduced nicotinamide adenine dinucleotide phosphate (NADPH) was added to initiate the reaction. After the reaction, the sample was processed and liquid chromatography tandem mass spectrometry (LC-MS/MS) was used to quantitatively detect the […] metabolites produced by the specific substrate, Acetaminophen and 4′-hydroxydiclofenac, 4′-hydroxymephenytoin, Dextrorphan and 1′-hydroxymidazolam, in order to calculate the corresponding half maximal inhibitory concentration (IC50).

[3] = biological target: T2, CYP3A4 (Homo sapiens, UniProt P08684); experiment: Inhibition of human liver microsomal CYP3A4 (midazolam probe); type: in vitro ADME; settings: human liver microsomes, probe midazolam
T2 construct: from tissue; host or cells: human liver microsomes
Method: as §2, §3

[4] = biological target: T3, CYP1A2 (Homo sapiens, UniProt P05177); experiment: Inhibition of human liver microsomal CYP1A2 (phenacetin probe); type: in vitro ADME; settings: human liver microsomes
T3 construct: from tissue; host or cells: human liver microsomes
T3 sequence (P05177 1-516): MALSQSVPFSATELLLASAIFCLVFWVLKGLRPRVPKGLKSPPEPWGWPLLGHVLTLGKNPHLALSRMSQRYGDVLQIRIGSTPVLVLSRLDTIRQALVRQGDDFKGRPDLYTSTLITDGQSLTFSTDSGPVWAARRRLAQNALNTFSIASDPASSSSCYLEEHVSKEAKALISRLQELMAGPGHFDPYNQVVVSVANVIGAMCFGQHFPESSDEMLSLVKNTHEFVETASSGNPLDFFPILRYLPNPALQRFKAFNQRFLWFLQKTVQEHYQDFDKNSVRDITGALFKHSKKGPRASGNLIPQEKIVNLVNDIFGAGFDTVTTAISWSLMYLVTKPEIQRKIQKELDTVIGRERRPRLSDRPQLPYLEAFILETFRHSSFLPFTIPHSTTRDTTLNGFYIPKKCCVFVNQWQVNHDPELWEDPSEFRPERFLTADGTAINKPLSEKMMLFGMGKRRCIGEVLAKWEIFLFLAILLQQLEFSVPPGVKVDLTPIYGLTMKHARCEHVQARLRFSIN
Method: as §2, §3

[5] = biological target: T4, CYP2D6 (Homo sapiens, UniProt P10635); experiment: Inhibition of human liver microsomal CYP2D6 (dextromethorphan probe); type: in vitro ADME; settings: human liver microsomes
T4 construct: from tissue; host or cells: human liver microsomes
Method: as §2, §3

[6] = biological target: T5, CCR5 (Homo sapiens, UniProt P51681); experiment: CCR5 in vitro test: intracellular calcium signal detected by FLIPR; type: cell-based; settings: HEK293 cells expressing CCR5, agonist RANTES at EC80, calcium signal
T5 construct: expressed in transfected cells; host or cells: HEK293, clone C13, passage P4
In short: as §1

[7] = biological target: T6, CYP2C9 (Homo sapiens, UniProt P11712); experiment: Inhibition of human liver microsomal CYP2C9 (diclofenac probe); type: in vitro ADME; settings: human liver microsomes
T6 construct: from tissue; host or cells: human liver microsomes
Method: as §2, §3

T6 sequence (P11712 whole entry): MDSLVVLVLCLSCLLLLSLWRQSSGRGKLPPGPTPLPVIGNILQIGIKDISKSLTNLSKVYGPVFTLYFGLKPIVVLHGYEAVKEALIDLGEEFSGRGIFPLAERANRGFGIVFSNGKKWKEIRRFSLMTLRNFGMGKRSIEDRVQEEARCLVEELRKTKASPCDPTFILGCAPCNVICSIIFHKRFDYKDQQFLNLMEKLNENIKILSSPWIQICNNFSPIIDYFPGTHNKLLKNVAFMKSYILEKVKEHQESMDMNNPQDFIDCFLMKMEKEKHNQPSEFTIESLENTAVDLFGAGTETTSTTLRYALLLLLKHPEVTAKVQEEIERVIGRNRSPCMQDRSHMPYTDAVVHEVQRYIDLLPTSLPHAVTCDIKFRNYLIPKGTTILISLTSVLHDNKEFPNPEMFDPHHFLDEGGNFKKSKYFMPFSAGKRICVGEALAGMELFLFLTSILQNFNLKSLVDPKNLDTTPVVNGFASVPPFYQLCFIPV
T1 sequence (P41597 whole entry, species assumed): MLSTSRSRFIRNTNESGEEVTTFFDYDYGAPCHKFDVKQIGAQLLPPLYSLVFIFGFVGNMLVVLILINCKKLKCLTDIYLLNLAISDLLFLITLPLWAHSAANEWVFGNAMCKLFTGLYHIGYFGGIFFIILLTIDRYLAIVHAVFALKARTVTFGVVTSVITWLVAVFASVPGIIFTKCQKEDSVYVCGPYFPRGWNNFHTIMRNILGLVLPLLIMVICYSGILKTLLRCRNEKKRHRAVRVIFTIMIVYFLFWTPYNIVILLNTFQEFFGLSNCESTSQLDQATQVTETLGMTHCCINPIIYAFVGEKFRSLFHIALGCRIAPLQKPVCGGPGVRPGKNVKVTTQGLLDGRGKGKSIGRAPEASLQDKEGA
T2 sequence (P08684 whole entry): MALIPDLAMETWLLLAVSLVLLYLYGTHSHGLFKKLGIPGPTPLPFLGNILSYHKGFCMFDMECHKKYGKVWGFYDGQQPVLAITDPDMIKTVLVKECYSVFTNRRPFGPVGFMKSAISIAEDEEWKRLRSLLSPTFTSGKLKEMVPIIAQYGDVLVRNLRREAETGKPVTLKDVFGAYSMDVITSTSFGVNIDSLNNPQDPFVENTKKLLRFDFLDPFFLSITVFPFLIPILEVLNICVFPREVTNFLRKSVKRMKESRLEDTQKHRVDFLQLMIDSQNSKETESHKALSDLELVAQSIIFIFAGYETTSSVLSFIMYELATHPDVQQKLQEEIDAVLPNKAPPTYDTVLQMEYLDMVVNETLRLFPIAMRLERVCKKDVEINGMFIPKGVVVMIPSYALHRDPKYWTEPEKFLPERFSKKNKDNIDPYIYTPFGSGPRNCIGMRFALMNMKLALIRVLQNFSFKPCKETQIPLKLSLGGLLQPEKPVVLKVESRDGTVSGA
T5 sequence (P51681 whole entry, species assumed): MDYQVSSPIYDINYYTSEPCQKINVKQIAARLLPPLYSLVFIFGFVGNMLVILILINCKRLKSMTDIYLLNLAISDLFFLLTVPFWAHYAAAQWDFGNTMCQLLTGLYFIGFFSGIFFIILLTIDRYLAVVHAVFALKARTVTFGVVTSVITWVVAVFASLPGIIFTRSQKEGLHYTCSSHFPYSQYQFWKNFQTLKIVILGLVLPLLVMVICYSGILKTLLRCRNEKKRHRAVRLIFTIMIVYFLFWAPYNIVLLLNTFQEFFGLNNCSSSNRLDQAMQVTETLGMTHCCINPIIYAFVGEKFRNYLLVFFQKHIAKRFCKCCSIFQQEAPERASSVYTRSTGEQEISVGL
T4 sequence (P10635 whole entry): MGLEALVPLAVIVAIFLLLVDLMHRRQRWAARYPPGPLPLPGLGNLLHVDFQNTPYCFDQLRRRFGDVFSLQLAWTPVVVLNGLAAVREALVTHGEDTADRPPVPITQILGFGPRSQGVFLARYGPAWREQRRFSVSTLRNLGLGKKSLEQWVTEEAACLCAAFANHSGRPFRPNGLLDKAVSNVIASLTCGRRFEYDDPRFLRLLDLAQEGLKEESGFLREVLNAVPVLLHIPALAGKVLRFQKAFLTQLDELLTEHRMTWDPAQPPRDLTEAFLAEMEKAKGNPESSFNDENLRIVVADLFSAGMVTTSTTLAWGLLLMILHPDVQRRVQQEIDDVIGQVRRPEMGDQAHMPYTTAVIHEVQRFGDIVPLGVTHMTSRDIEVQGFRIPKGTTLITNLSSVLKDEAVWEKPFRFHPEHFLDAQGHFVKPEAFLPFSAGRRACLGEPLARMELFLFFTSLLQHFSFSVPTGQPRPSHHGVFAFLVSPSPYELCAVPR

IC50 [1]: 8.2 nM
Risk of inhibiting isoenzymes of human liver microsomal cytochrome P450 (conclusion in words) [2]: no risk on inhibiting five isoenzymes
IC50 [3]: > 50 µM
IC50 [4]: > 50 µM
IC50 [5]: > 50 µM
IC50 [6]: 6.7 nM
IC50 [7]: > 50 µM
Structure (SMILES): CCCCOCCOc1ccc(-c2ccc(OCC)c(/C=C/C(=O)Nc3ccc([S@+]([O-])Cc4c(C)ncn4CC)cc3)c2)cc1 [WX047]
